Reference: patent publication US20210059959A1, “USE OF CANNABINOIDS IN THE TREATMENT OF MENTAL DISORDERS” (GW Pharma Limited, priority 2015, published 2021)

Test system: participants with schizophrenia or related psychotic disorder
Experiment: Brief Assessment of Cognition in Schizophrenia (BACS), double-blind placebo-controlled study of CBD as adjunctive therapy
Format: in vivo, human
Conditions: all patients
Procedure: Example 1 below describes the use of a highly purified cannabis extract comprising cannabidiol (CBD) in a human clinical trial. Example 1 describes data produced in a double-blind, randomised, placebo-controlled, parallel group study of highly purified CBD as adjunctive therapy in first line treatment of schizophrenia or related psychotic disorder.
An eight-week, multi-centre, double-blind, randomised, placebo-controlled, parallel group study was conducted with the aim to determine the efficacy, safety and tolerability of highly purified CBD as adjunctive therapy in first line treatment of schizophrenia or related psychotic disorder.
This study evaluated the efficacy of highly purified CBD compared with placebo on the participant's PANSS Total score, ‘P’, ‘N’, ‘G’, SANS and BACS scores.
Changes from baseline in PANSS scores (Total, ‘P’, ‘N’ and ‘G’), SANS and BACS were recorded at the start of the study (baseline) and at the end of treatment (after 6 weeks treatment with CBD or placebo).
For inclusion in the study participants were required to be male or female aged 18 to 65 years, diagnosed with schizophrenia or a related psychotic disorder (such as schizoaffective or schizophreniform disorder) as defined by the Diagnostic and Statistical Manual of Mental Disorders Version 4. Participants must have been treated for a minimum of four-weeks and be on a stable dose of their current antipsychotic medication. […] A PANSS score in excess of 60 infers that the patient has symptoms related to schizophrenia or related disorders.
The participants were randomised to one of two treatment groups which each consisted of 39 participants. Treatment was administered as either 5 ml CBD (100 mg/ml) oral solution to be taken twice daily or 5 ml matched placebo oral solution to be taken twice daily.
Brief Assessment of Cognition in Schizophrenia (BACS)
The BACS is an instrument used to assess the aspects of cognition found to be most impaired and most strongly correlated with outcome in participants with schizophrenia or related psychotic disorder. The BACS yields a high completion rate in participants with schizophrenia or related psychotic disorder.
The BACS consists of six domains: verbal memory; working memory; motor speed; verbal fluency; attention and speed information processing and executive functions. A score is obtained for each domain and a composite summary score is also calculated as the average of the scores from the six domains. An increase in score is indicative of an improvement in cognition.
This instrument was assessed at each assessment visit (Visits 1-4).

C=C(C)[C@@H]1CCC(C)=C[C@H]1c1c(O)cc(CCCCC)cc1O [CBD, Cannabidiol]
Change in baseline scores, BACS composite score (CBD adjunct, 6 weeks): 3.5
Change in baseline scores, BACS sub-domain 1 Verbal memory (CBD adjunct, 6 weeks): 2.1
Change in baseline scores, BACS sub-domain 2 Working memory (CBD adjunct, 6 weeks): 1.8
Change in baseline scores, BACS sub-domain 3 Motor speed (CBD adjunct, 6 weeks): 6.2
Change in baseline scores, BACS sub-domain 4 Verbal fluency (CBD adjunct, 6 weeks): 4.3
Change in baseline scores, BACS sub-domain 5 Attention and speed information processing (CBD adjunct, 6 weeks): 4.4
Change in baseline scores, BACS sub-domain 6 Executive function (CBD adjunct, 6 weeks): 2.0
Change in baseline scores, BACS sub-domain 3 Motor speed: difference (CBD vs placebo, P = 0.0439): (4.2)
Change in baseline scores, BACS composite score: difference (CBD vs placebo, P = 0.0677): (1.3)
Change in baseline scores, BACS sub-domain 6 Executive function: difference (CBD vs placebo, P = 0.0682): (1.4)
Change in baseline scores, BACS sub-domain 2 Working memory: difference (CBD vs placebo, P = 0.1414): (1.0)
Change in baseline scores, BACS sub-domain 5 Attention and speed information processing: difference (CBD vs placebo, P = 0.5915): (0.9)
Change in baseline scores, BACS sub-domain 4 Verbal fluency: difference (CBD vs placebo, P = 0.8059): (0.4)
Change in baseline scores, BACS sub-domain 1 Verbal memory: difference (CBD vs placebo, P = 0.9933): (0.1)
